Measurements: article PMC8980233, “Differentiating the Neuropharmacological Properties of Nicotinic Acetylcholine Receptor-Activating Alkaloids” (Frontiers in Pharmacology, 2022)

Experiments:
[1] = tested on: zebrafish (Danio rerio; strain AB); experiment: Zebrafish novel tank test (NTT)
Procedure: Adult male and female wild-type zebrafish were treated with the compounds for 20 min in a final volume of 50 ml in a 250-ml treatment beaker one fish at a time. The fish were briefly rinsed in fresh system water, and then immediately transferred to a trapezoidal tank (14.6 cm height x 5.5 cm width x 27.9 cm top length and x 23.6 cm bottom length) filled with 1.5 L system water. The behavior of the fish was monitored for the next 5 min by using the Noldus EthoVision XT system (Wageningen, Netherlands), with the camera placed approximately 1 m from the test tank. The part of the tank filled with water (11.5 cm height) was virtually divided into top, center, and bottom of equal heights (approximately 3.8 cm per segment) for the analysis. The average time spent at the top and bottom portions of the tank was analyzed to determine the anxiety-like behavior of fish. The average total distance travelled and freezing time were calculated to determine the effects of the compounds on the general behavior of fish. Freezing was defined by a complete cessation of movement except for gills and eyes ([Kalueff et al., 2013]). A minimum of 12 fish (6 females and 6 males) per condition were used for the study. The experimenter was blind to the test conditions.
If not, the dose was reduced until no obvious signs of tolerability problems were observed. […] The concentrations were calculated based on the free base molecular weight. Buspirone—a clinical anxiolytic drug used acutely and chronically to investigate the change in the anxiety-like behavior ([Maximino, et al., 2011]; [Maximino, et al., 2013])—was included as a positive control.

C57Bl/6 mice [2] = experiment: Tolerability test (body weight, body temperature, passive signs, manipulation responses); conditions: for BT (°C) naïve / Manipulations naïve / Passive naïve: baseline; for BW Day 1 / BW Day 2: mean ± SD
Procedure: In brief, mice were single-housed prior to the test and evaluated for baseline body weight, body temperature, and other parameters. […] On day 1, the mice were i. p. injected with saline (vehicle) or a test compound at 10 ml/kg body weight. Then, body temperature was measured at 15 min, 4 h, and 24 h and body weight on days 1 and 2. Neurological and motor parameters were evaluated at 15 min, 2 h, and 4 h after administration. The list of parameters is provided in Supplementary Figure S1 in Supplementary Material S1.
In addition, within 5 min after the 15-min observation period, mice were placed in open-field chambers for 30 min to determine their general motor activity (distance traveled), ambulatory time, and number of rears. The open-field chambers were made of Plexiglas (27.3 × 27.3 × 20.3 cm; Med Associates Inc, St Albans, VT, United States) surrounded by infrared photobeam sources (16 × 16 × 16 beams). Horizontal activity (distance and time traveled) and vertical activity (number and frequency of rears) were measured by consecutive beam breaks. At the end of each open-field test session, the chambers were thoroughly cleaned with NOLVASAN® solution (Zoetis Services LLC, Parsippany, NJ, United States). Four mice were used per treatment condition. Mice were terminated after completion of the last tolerability observation.
All compounds were diluted in saline, and the pH was adjusted to approximately 7.0 with HCl or NaOH on the day of the experiment. […] The doses were calculated based on the free base molecular weight of the compounds.
For the tolerability tests, passive signs and manipulation responses were analyzed for effects of the treatment by the Kruskal–Wallis test. Body temperature and body weight data were analyzed by two-way repeated measures analysis of variance (ANOVA). The total distance and time traveled and number and frequency of rears in the open-field activity test were analyzed by one-way ANOVA, followed by the Tukey post-hoc test. For the analyses of the zebrafish NTT data, one-way ANOVA was used, followed by Dunnett’s multiple comparison test, if it passed the Shapiro-Wilk normality test. […] An effect was considered significant if p < 0.05. The half maximal effective concentration (EC50) and half-maximal inhibitory concentration (IC50) for the receptor pharmacology and neurotransmitter release assay were determined by using nonlinear regression analysis. Statistical analyses were conducted using GraphPad Prism.

C57Bl/6 mice [3] = experiment: SmartCube behavioral profiling; type: in vivo; conditions: single i.p. injection, all doses tested
From the text: The SmartCube^ ® system is a unique mouse behavior profiling system developed by PsychoGenics Inc. It extracts over 2000 spontaneous and challenge-induced behavioral features during a session ([Alexandrov et al., 2015]; [Alexandrov et al., 2016]). The recorded behavioral parameters are then compared against the behavioral profiles of marketed reference compounds in the database, and the test compounds are classified into known drug classes using PsychoGenics’ proprietary bioinformatics algorithms. In brief, mice were i. p. injected with vehicle or test compound at 10 ml/kg body weight and placed in the SmartCube^ ® arena (24 cm × 25 cm) 15 min later. Spontaneous and stimulus-induced behaviors of mice were recorded using force sensors distributed throughout the arena during a 45-min test session. In addition, three high-resolution video cameras provided a constant 3-dimensional (3D) view of the mouse behavior in the SmartCube^ ® arena throughout the testing period. The bedding was vacuumed, and the arena was cleaned with NOLVASAN^ ® solution between each run. Data from the SmartCube^ ® test were processed using PsychoGenics’ proprietary Computer Vision feature extraction, Bayesian probabilistic density models, and data mining algorithms, trained on a large library of reference compounds with known therapeutic indications to predict the underlying class of each test compound ([Alexandrov et al., 2015]; [Alexandrov et al., 2016]). Twelve mice were tested per condition. Mice were terminated after the completion of the SmartCube^ ® test.
The doses were calculated based on the free base molecular weight. The doses were selected based on the tolerability test results.

[4] = only at the highest dose tested (10 mg/L)

Structure (SMILES): C1=CCC(c2cccnc2)NC1 (racemic) [Anatabine, (±)-Anatabine]
- total distance travelled ([1]; 0.3 and 10 mg/L): reduced
- freezing time ([1]; only at 0.3 mg/L): increased
- time spent at the bottom [1, 4]: reduced the time spent at the bottom
- time spent at the top [1, 4]: increased the time spent at the top
- BT (°C) naïve (C57Bl/6 mice [2]; 1 mg/kg group): 37.95 ± 0.13 °C
- Manipulations naïve (C57Bl/6 mice [2]; 1 mg/kg group): 0.00 ± 0.00
- Passive naïve (C57Bl/6 mice [2]; 1 mg/kg group): 0.00 ± 0.00
- BT (°C) 15min (C57Bl/6 mice [2]; 1 mg/kg i.p.): 36.98 ± 0.41 °C
- BT (°C) 4hr (C57Bl/6 mice [2]; 1 mg/kg i.p.): 36.65 ± 0.33 °C
- BT (°C) 24hr (C57Bl/6 mice [2]; 1 mg/kg i.p.): 36.88 ± 0.43 °C
- Manipulations 15min (C57Bl/6 mice [2]; 1 mg/kg i.p.): 0.00 ± 0.00
- Manipulations 2hr (C57Bl/6 mice [2]; 1 mg/kg i.p.): 0.00 ± 0.00
- Manipulations 4hr (C57Bl/6 mice [2]; 1 mg/kg i.p.): 0.00 ± 0.00
- Passive 15min (C57Bl/6 mice [2]; 1 mg/kg i.p.): 0.00 ± 0.00
- Passive 2hr (C57Bl/6 mice [2]; 1 mg/kg i.p.): 0.00 ± 0.00
- Passive 4hr (C57Bl/6 mice [2]; 1 mg/kg i.p.): 0.00 ± 0.00
- BW Day 1 (C57Bl/6 mice [2]; 1 mg/kg i.p.): 24.46 ± 2.30
- BW Day 2 (C57Bl/6 mice [2]; 1 mg/kg i.p.): 24.64 ± 2.56
- BT (°C) naïve (C57Bl/6 mice [2]; 2 mg/kg group): 37.83 ± 0.15 °C
- Manipulations naïve (C57Bl/6 mice [2]; 2 mg/kg group): 0.00 ± 0.00
- Passive naïve (C57Bl/6 mice [2]; 2 mg/kg group): 0.00 ± 0.00
- BT (°C) 15min (C57Bl/6 mice [2]; 2 mg/kg i.p.): 35.28 ± 0.49 °C
- BT (°C) 4hr (C57Bl/6 mice [2]; 2 mg/kg i.p.): 36.48 ± 0.49 °C
- BT (°C) 24hr (C57Bl/6 mice [2]; 2 mg/kg i.p.): 36.45 ± 0.30 °C
- Manipulations 15min (C57Bl/6 mice [2]; 2 mg/kg i.p.): 0.00 ± 0.00
- Manipulations 2hr (C57Bl/6 mice [2]; 2 mg/kg i.p.): 0.00 ± 0.00
- Manipulations 4hr (C57Bl/6 mice [2]; 2 mg/kg i.p.): 0.00 ± 0.00
- Passive 15min (C57Bl/6 mice [2]; 2 mg/kg i.p.): 0.00 ± 0.00
- Passive 2hr (C57Bl/6 mice [2]; 2 mg/kg i.p.): 0.00 ± 0.00
- Passive 4hr (C57Bl/6 mice [2]; 2 mg/kg i.p.): 0.00 ± 0.00
- BW Day 1 (C57Bl/6 mice [2]; 2 mg/kg i.p.): 24.64 ± 1.69
- BW Day 2 (C57Bl/6 mice [2]; 2 mg/kg i.p.): 24.89 ± 2.21
- BT (°C) naïve (C57Bl/6 mice [2]; 4 mg/kg group): 38.08 ± 0.05 °C
- Manipulations naïve (C57Bl/6 mice [2]; 4 mg/kg group): 0.00 ± 0.00
- Passive naïve (C57Bl/6 mice [2]; 4 mg/kg group): 0.00 ± 0.00
- BT (°C) 15min (C57Bl/6 mice [2]; 4 mg/kg i.p.): 33.92 ± 0.30 °C
- BT (°C) 4hr (C57Bl/6 mice [2]; 4 mg/kg i.p.): 36.30 ± 0.40 °C
- BT (°C) 24hr (C57Bl/6 mice [2]; 4 mg/kg i.p.): 36.63 ± 0.17 °C
- Manipulations 15min (C57Bl/6 mice [2]; 4 mg/kg i.p.): 0.00 ± 0.00
- Manipulations 2hr (C57Bl/6 mice [2]; 4 mg/kg i.p.): 0.00 ± 0.00
- Manipulations 4hr (C57Bl/6 mice [2]; 4 mg/kg i.p.): 0.00 ± 0.00
- Passive 15min (C57Bl/6 mice [2]; 4 mg/kg i.p.): 0.00 ± 0.00
- Passive 2hr (C57Bl/6 mice [2]; 4 mg/kg i.p.): 0.00 ± 0.00
- Passive 4hr (C57Bl/6 mice [2]; 4 mg/kg i.p.): 0.00 ± 0.00
- body temperature 15 min after the injection (C57Bl/6 mice [2]; 4 mg/kg i.p.): decreased the body temperature
- BW Day 1 (C57Bl/6 mice [2]; 4 mg/kg i.p.): 24.73 ± 1.23
- BW Day 2 (C57Bl/6 mice [2]; 4 mg/kg i.p.): 24.43 ± 1.13
- SmartCube drug classification / behavioral features (C57Bl/6 mice [3]): no detectable effect

Structure (SMILES): CN1C(=O)CC[C@H]1c1cccnc1 [Cotinine, (-)-cotinine]
- freezing time ([1]; 100 mg/L): without affecting their freezing time
- total distance traveled ([1]; 100 mg/L): reduced
- time spent at the bottom ([1]; 100 mg/kg, 20 min treatment): spent less time at the bottom
- time spent at the top ([1]; any doses (30, 100, and 300 mg/L)): not affected
- time spent at the bottom ([1]; other concentrations (30 and 300 mg/L)): no effect
- concentration inducing anxiolytic-like effect, fold higher than nicotine ([1]; zebrafish): 100 fold
- tolerability (C57Bl/6 mice [2]; mouse, in vivo, ip, 10 mg/kg): well tolerated
- SmartCube drug classification / behavioral features (C57Bl/6 mice [3]): no detectable effect
